Results as given in patent US6403648B2, “Alkylaminoalkyl-sulfonyl-terminated β-alanineamide amino-diol compounds for treatment of hypertension” (G. D. Searle & Co., priority 1993, dated 2002).

Molecular target: T1, human renin (Homo sapiens, UniProt P00797)
T1 construct: purchased National Institute for Biological Standards, London
T1 sequence (P00797 67-406): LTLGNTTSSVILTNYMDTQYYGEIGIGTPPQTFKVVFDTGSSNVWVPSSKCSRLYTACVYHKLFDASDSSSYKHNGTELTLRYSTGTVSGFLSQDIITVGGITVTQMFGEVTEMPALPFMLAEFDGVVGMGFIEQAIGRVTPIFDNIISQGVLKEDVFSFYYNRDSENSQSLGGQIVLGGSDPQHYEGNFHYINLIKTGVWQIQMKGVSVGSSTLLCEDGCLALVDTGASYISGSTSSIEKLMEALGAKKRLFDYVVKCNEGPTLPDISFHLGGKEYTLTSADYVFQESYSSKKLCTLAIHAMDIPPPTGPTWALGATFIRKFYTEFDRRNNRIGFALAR
Experiment: Human renin inhibition in vitro
Type: biochemical
Settings: human renin with human plasma as substrate, pH 7.4, 37° C., two hours; angiotensin I by radioimmunoassay; read-out: inhibit human renin in vitro, IC50
Description: Compounds of Formula I were evaluated as inhibitors of human renin in an in vitro assay, as follows: This human renin inhibition test has been previously described in detail [Papaioannou et al., Clinical and Experimental Hypertension, A7(9), 1243-1257 (1985)]. Human renin was obtained from the National Institute for Biological Standards, London. An incubation mixture was prepared containing the following components: in a total volume of 0.25 mL: 100 mM Tris-acetate buffer at pH 7.4, 25×10^−6 Goldblatt units of renin, 0.05 mL of plasma from human volunteers taking oral contraceptives, 6.0 mM Na-EDTA, 2.4 mM phenylmethyl sulfonyl fluoride, 1.5 mM 8-hydroxyquinoline, 0.4 mg/mL bovine serum albumin (BSA), and 0.024 mg/mL neomycin sulfate. This mixture was incubated for two hours at 37° C. in the presence or absence of renin inhibitors. The produced angiotensin I was determined by radioimmunoassay (New England Nuclear kit). Test compounds to be assayed were dissolved in DMSO and diluted with 100 mM Tris-acetate buffer at pH 7.4 containing 0.5% BSA to the appropriate concentration. The final concentration of organic solvent in the reaction mixture was less than 1%. Control incubations at 37° C. were used to correct for effects of organic solvent on renin activity. The in vitro enzymatic conversion of angiotensinogen to angiotensin I was inhibited by test compounds of the invention.

Q: With CC(C)C[C@H](O)[C@H](O)[C@H](CC1CCCCC1)NC(=O)[C@H](C)CNC(=O)C(Cc1ccccc1)CS(=O)(=O)CCN(C)C (stereo partly shown) [Example 1] as the molecule, how does the IC50 read?
A: The IC50 was 44 nM.
